These results are taken from patent publication EP0476853B1, “Triphenodioxazine dyes” (ZENECA LIMITED, priority 1990, dated 1992).

The nature of the series: Solubility of the dyebase in aqueous acid solvent systems. The format is physicochemical. On the procedure:
The solubility of the product from step (a) was then determined in the following aqueous solvent systems.

For the compound `NCCNc1ccc2c(c1)Oc1c(Cl)c3c(c(Cl)c1=N2)Oc1cc(NCCN)ccc1N=3` [Formula (3)], the “Solubility (% w/w)” value by setting is: (solvent: 25% formic acid (aqueous)) 5.3 % w/w; (solvent: 25% lactic acid (aqueous)) 4.8 % w/w; (solvent: 50% formic acid (aqueous)) 7.5 % w/w; (solvent: 50% lactic acid (aqueous)) 4.9 % w/w; (solvent: 85% formic acid (aqueous)) 24.7 % w/w; (solvent: 88% lactic acid (aqueous)) 4.8 % w/w. Under “solvent: 50% aqueous acetic acid (comparison)”, this compound displayed a solubility of 2.52 % w/w.
